Laboratory results as given in patent publication US5955431A, “Mast cell protease peptide inhibitors” (Brigham and Women's Hospital, Inc., priority 1998, dated 1999).
Where a SMILES comes first, the peptide text is derived from it. The star is where a group is joined. pNA = O=[N+]([O-])c1ccc(N*)cc1

T1: recombinant mMCP-6-FLAG (Mus musculus, UniProt P21845)
T1 construct: endogenous pro-peptide followed by EK-susceptible peptide (Asp-Asp-Asp-Asp-Lys) (N, cleaved yes); made in house; host or cells: baculovirus; Spodoptera frugiperda 9 for virus, Trichoplusia ni High Five insect cells for expression
T1 sequence (P21845 32-276): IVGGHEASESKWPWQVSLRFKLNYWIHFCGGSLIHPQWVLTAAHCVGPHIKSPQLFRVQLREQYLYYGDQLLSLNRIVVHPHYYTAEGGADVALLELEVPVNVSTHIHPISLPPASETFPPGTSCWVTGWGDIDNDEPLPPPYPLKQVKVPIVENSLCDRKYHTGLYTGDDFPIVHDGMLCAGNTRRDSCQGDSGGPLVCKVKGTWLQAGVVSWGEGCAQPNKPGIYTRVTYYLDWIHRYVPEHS

B1: mMCP-6-FLAG: EK-activated recombinant mouse mast cell protease 6 (tryptase) with the FLAG peptide attached to its C-terminus (protein, UniProt P21845 32-276, looked up)
Tryptase beta-2: T1 sequence (P21845 32-276)
modifications: C-terminal FLAG tag

Key:
[1] = target: T1, recombinant mMCP-6-FLAG; assay: spectrophotometric cleavage of trypsin-susceptible p-nitroanilide substrates by EK-activated mMCP-6-FLAG; assay type: biochemical
Description: Purified pro-EK-mMCP-6-FLAG (~100 μg in 100 μl) was separately mixed with 100 μl of a pH 5.2 buffer consisting of 50 mM sodium acetate and 5 mM calcium chloride. One μl of a solution containing 550 U of calf intestine EK (Biozyme) was added to each, and the mixture was incubated at 37° C. generally for 3 h to allow EK to activate the zymogen in the absence of heparin. The spectrophotometric method of Svendsen and coworkers (Throm. Res. 1972, 1:267-278) was used to determine whether or not mMCP-6-FLAG is enzymatically active. Generally, 1-μl samples of each activation reaction were placed in 1 ml of a pH 7.4 buffer containing 25 mM sodium phosphate, 1 mM EDTA, and 50 μg of tosyl-Gly-Pro-Lys-p-nitroanilide. The change in optical density at 405 nm was then determined after a 3-min incubation at room temperature. The ability of recombinant mMCP-6-FLAG to cleave the trypsin-susceptible substrates tosyl-Gly-Pro-Arg-p-nitroanilide, benzoyl-Ile-Glu-Gly-Arg-p-nitroanilide, benzoyl-Pro-Phe-Arg-p-nitroanilide, and acetyl-Ile-Glu-Ala-Arg-p-nitroanilide were also evaluated.

[2] = target: T2, recombinant mMCP-7-FLAG (Mus musculus, UniProt Q02844); assay: cleavage of p-nitroanilide substrate by mMCP-7-FLAG; assay type: biochemical; details: in vitro
T2 construct: made in house; host or cells: insect cells (described in earlier work of the same group)

[3] = tested on: neutrophils; assay: emigration of neutrophils into the peritoneal cavity after injection of tryptase; assay type: in vivo, BALB/c mice
Text: mMCP-6-FLAG-Induced Emigration of Neutrophils Into the Peritoneal Cavity and mMCP-6-Induced Growth of Fibroblasts and their Adhesion to Fibronectin--This experiment is discussed below.
mMCP-6-Induced Emigration of Neutrophils Into the Peritoneal Cavity of BALB/c Mice--The mast cells that reside in the peritoneal cavity of BALB/c mice express mMCP-6 but not mMCP-7 (Stevens et al., Proc. Natl. Acad. Sci. USA 1994, 91:128-132). […] Thus, the direct or indirect chemotaxis activity of mMCP-6 is relatively neutrophil specific. It also appears that tryptase treatment results in a relatively persistent recruitment of neutrophils into the peritoneal cavity.

[4] = tested on: Swiss albino mouse skin-derived 3T3 fibroblasts; assay: adhesion and growth of fibroblasts on fibronectin-coated culture dishes; assay type: cell-based; details: for adhesion/shape of fibroblasts on fibronectin-coated dishes: 15 min at 37° C.
Description: However, these cells will become less adhesive and divide in vitro when they are trypsin treated. To determine if mMCP-6-FLAG could specifically alter the growth and/or adhesion of these cells, the fibroblasts were allowed to attach to replicate fibronectin-coated culture dishes and then were incubated for 15 min at 37° C. with buffer alone or buffer containing either pro-EK-mMCP-6-FLAG, mMCP-6-FLAG, mMCP-7-FLAG, or trypsin. […] SDS-PAGE/immunoblot analysis of the supernatants from the result cultures confirmed that fibronectin was degraded in the mMCP-6-FLAG-treated cultures but not in the pro-EK-mMCP-6-FLAG or mMCP-7-FLAG treated cultures.

[5] = tested on: mouse fibronectin; assay: in vitro degradation of fibronectin by recombinant tryptases; assay type: biochemical
Description: In Vitro Degradation of Fibronectin by Recombinant mMCP-6-FLAG--Five μg of purified mouse fibronectin (Alexis) was suspended in 1 mM EDTA and 25 mM sodium phosphate, pH 7.4, containing 0.01 U EK, 0.5 μg recombinant pro-EK-mMCP-6-FLAG, 0.5 μg recombinant mMCP-6-FLAG (activated with 0.01 U EK), or 0.5 μg recombinant mMCP-7FLAG (activated with 0.01 U EK). After an incubated for various lengths of times, the resulting digests were subjected to SDS-PAGE. In one experiment, the N-terminal amino acid sequences; of the major fibronectin fragments in the mMCP-FLAG digest were determined.

T2 sequence (Q02844 29-273): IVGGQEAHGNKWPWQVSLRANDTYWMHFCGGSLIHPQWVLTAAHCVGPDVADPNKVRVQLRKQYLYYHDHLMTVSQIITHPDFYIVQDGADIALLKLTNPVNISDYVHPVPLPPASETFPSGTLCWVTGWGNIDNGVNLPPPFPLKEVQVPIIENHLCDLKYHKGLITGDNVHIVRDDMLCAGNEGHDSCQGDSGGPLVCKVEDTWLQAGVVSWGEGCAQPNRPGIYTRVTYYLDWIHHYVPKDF

Row | cleavage of substrate by mMCP-6-FLAG ([1]; in the presence or absence of heparin) | cleavage of substrate by mMCP-7-FLAG compared with mMCP-6-FLAG [2] | Molecule | neutrophil chemotaxis activity in the in vivo assay ([3]; enzymatically active tryptase, peritoneal cavity) | contact inhibition of treated fibroblasts [4] | rate of proliferation of treated fibroblasts [4] | adhesion/shape of fibroblasts on fibronectin-coated dishes [4] | cleavage of fibronectin in vitro ([5]; SDS-PAGE of digests) | pH of optimal enzymatic activity ([1]; recombinant, EK-activated) | persistence of induced neutrophilia ([3]; kinetic experiments, peritoneal cavity) | influx of neutrophils in the peritoneal cavity ([3]; six to 36 h after intraperitoneal administration) | fibroblasts remaining attached to the culture dish ([4]; 40 min incubation) | degradation of fibronectin in culture supernatants ([4]; SDS-PAGE/immunoblot analysis) | number of fibronectin fragments obtained ([5]; 60-min incubation, tryptase bound to heparin)
1 | does not effectively cleave | much better than mMCP-6-FLAG | CC[C@H](C)[C@H](NC(C)=O)C(=O)N[C@@H](CCC(=O)O)C(=O)N[C@@H](C)C(=O)N[C@@H](CCCN=C(N)N)C(=O)Nc1ccc([N+](=O)[O-])cc1 [acetyl-Ile-Glu-Ala-Arg-p-nitroanilide] (Ac-IEAR-pNA) |  |  |  |  |  |  |  |  |  |  | 
2 |  |  | mMCP-7-FLAG: EK-activated recombinant mouse mast cell protease 7 (tryptase) with FLAG peptide | very little, if any | do not lose their contact inhibition | do not increase their rate of proliferation | continued to adhere | not |  |  |  |  |  | 
3 |  |  | B1 |  |  |  | rapidly induced the cultured fibroblasts to round up |  | ~7.4 | at least 3 days | pronounced influx of neutrophils | very few fibroblasts remained attached | degraded | 2 fragments
